The source of these data is publication PMC7034075, “Exploring structure-activity relationship of S-substituted 2-mercaptoquinazolin-4(3H)-one including 4-ethylbenzenesulfonamides as human carbonic anhydrase inhibitors” (Journal of Enzyme Inhibition and Medicinal Chemistry, 2020).

Each structure is given as a SMILES string. Read-outs that look alike come from different tables or passages of the source.

Common to all, as to assay: stopped-flow CO2 hydrase assay
What all share (format): biochemical

For test [1], the target named is T1, hCA IX (Homo sapiens, UniProt Q16790).
T1 construct: gene CA9; recombinant, obtained in-house
An excerpt: stopped-flow CO2 hydrase assay on hCA IX

In test [2] the target is T2, hCA XII (Homo sapiens, UniProt O43570).
T2 construct: gene CA12; recombinant, obtained in-house
An excerpt:
stopped-flow CO2 hydrase assay on hCA XII

The target in test [3] is T3, hCA I (Homo sapiens, UniProt P00915).
T3 construct: gene CA1; recombinant, obtained in-house
The source says: stopped-flow CO2 hydrase assay on hCA I

In test [4] the target is T4, hCA II (Homo sapiens, UniProt P00918).
T4 construct: gene CA2; recombinant, obtained in-house
The source says: stopped-flow CO2 hydrase assay on hCA II

Setting [5] is: CO2 hydration, mean of […] assays.

T2 sequence (O43570 25-354): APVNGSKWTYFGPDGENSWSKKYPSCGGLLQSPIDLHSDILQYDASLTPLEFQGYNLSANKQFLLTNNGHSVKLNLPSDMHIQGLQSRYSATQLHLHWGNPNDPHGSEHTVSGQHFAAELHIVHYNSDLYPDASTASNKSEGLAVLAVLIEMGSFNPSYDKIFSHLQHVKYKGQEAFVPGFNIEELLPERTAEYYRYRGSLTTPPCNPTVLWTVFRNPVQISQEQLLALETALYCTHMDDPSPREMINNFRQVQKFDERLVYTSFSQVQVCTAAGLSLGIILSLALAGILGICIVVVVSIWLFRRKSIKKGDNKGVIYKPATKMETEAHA
T3 sequence (P00915 2-261): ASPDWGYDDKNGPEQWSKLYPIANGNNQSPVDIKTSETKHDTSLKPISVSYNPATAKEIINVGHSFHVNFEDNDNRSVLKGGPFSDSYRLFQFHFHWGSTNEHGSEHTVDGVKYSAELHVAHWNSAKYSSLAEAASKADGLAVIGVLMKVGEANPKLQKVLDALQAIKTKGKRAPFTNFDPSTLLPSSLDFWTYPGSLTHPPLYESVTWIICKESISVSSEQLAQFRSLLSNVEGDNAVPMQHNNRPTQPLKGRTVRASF

Consider `CSc1nc2ccccc2c(=O)n1CCc1ccc(S(N)(=O)=O)cc1` [compound 2, 4-(2-(2-(Methylthio)-4-oxoquinazolin-3(4H)-yl)ethyl)benzenesulfonamide], for which the Ki in test [1] turned out to be 9.5 nM; in test [2], 3.1 nM.

As for `CCSc1nc2ccccc2c(=O)n1CCc1ccc(S(N)(=O)=O)cc1` [compound 3, 4-(2-(2-(Ethylthio)-4-oxoquinazolin-3(4H)-yl)ethyl)benzenesulfonamide], the inhibitory constant (Ki) in test [1] was found to be 7.1 nM; in test [2] it was 3.9 nM.

`N#CCSc1nc2ccccc2c(=O)n1CCc1ccc(S(N)(=O)=O)cc1` [compound 4, 4-(2-(2-((Cyanomethyl)thio)-4-oxoquinazolin-3(4H)-yl)ethyl)benzenesulfonamide]: the Ki in test [1] was determined as 12.6 nM; in test [2], 8.6 nM.

In the case of `NS(=O)(=O)c1ccc(CCn2c(SCc3ccccc3)nc3ccccc3c2=O)cc1` [compound 5, 4-(2-(2-(Benzylthio)-4-oxoquinazolin-3(4H)-yl)ethyl)benzenesulfonamide], the inhibitory constant (Ki) worked out at 50.7 nM in test [1] and 38.4 nM in test [2].

As for `NS(=O)(=O)c1ccc(CCn2c(SCc3ccc(Br)cc3)nc3ccccc3c2=O)cc1` [compound 6, 4-(2-(2-((4-Bromobenzyl)thio)-4-oxoquinazolin-3(4H)-yl)ethyl)benzenesulfonamide], the Ki in test [1] came to 64.1 nM; in test [2] it was 57 nM.

Turning to `NS(=O)(=O)c1ccc(CCn2c(SCc3ccc(Cl)cc3)nc3ccccc3c2=O)cc1` [compound 7, 4-(2-(2-((4-Chlorobenzyl)thio)-4-oxoquinazolin-3(4H)-yl)ethyl)benzenesulfonamide], the Ki in test [1] worked out at 34.2 nM; in test [2] it was 65.6 nM.

In the case of `N#Cc1ccc(CSc2nc3ccccc3c(=O)n2CCc2ccc(S(N)(=O)=O)cc2)cc1` [compound 8, 4-(2-(2-((4-Cyanobenzyl)thio)-4-oxoquinazolin-3(4H)-yl)ethyl)benzenesulfonamide], the inhibition constant Ki was determined as 47.3 nM in test [1] and 17.6 nM in test [2].

With `NS(=O)(=O)c1ccc(CCn2c(SCc3ccc(F)cc3)nc3ccccc3c2=O)cc1` [compound 9, 4-(2-(2-((4-Fluorobenzyl)thio)-4-oxoquinazolin-3(4H)-yl)ethyl)benzenesulfonamide], the values for the Ki in test [1] and in test [2] (setting [5]) were 28.9 nM and 17.2 nM, respectively.

For the compound `Cc1ccc(CSc2nc3ccccc3c(=O)n2CCc2ccc(S(N)(=O)=O)cc2)cc1` [compound 10, 4-(2-(2-((4-Methylbenzyl)thio)-4-oxoquinazolin-3(4H)-yl)ethyl)benzenesulfonamide], the Ki in test [1] was 57.1 nM; in test [2], 28.2 nM.

Consider `NS(=O)(=O)c1ccc(CCn2c(SCc3ccc([N+](=O)[O-])cc3)nc3ccccc3c2=O)cc1` [compound 11, 4-(2-(2-((4-Nitrobenzyl)thio)-4-oxoquinazolin-3(4H)-yl)ethyl)benzenesulfonamide], for which the Ki in test [1] (setting [5]) is 19.3 nM; in test [2] it was 25.6 nM.

`NS(=O)(=O)c1ccc(CCn2c(SCCN3CCCCC3)nc3ccccc3c2=O)cc1` [compound 12, 4-(2-(4-Oxo-2-((2-(piperidin-1-yl)ethyl)thio)quinazolin-3(4H)-yl)ethyl)benzenesulfonamide]: the inhibition constant (Ki) in test [3] came out at 532 nM; in test [1], 22.4 nM; in test [2], 20.2 nM.

For the compound `NS(=O)(=O)c1ccc(CCn2c(SCCCN3C(=O)c4ccccc4C3=O)nc3ccccc3c2=O)cc1` [compound 13, 4-(2-(2-((3-(1,3-Dioxoisoindolin-2-yl)propyl)thio)-4-oxoquinazolin-3(4H)-yl)ethyl)benzenesulfonamide], the Ki came out at 86.6 nM in test [4], 321 nM in test [3], 93.6 nM in test [1] and 71.4 nM in test [2].
